# Laboratory results published in PubChem BioAssay (NCI).
#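 The compound was tested at five concentrations on cells cultured in 96-well plates, with a 48-hour exposure period. TGI: total growth inhibition.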
# Experiments:
# Test in all cases: NCI-60 cell line screen, 48 h
# A498 renal = system: A498 renal
# SF-539 CNS = system: SF-539 CNS
# NCI/ADR-RES ovarian = system: NCI/ADR-RES ovarian
# HCT-116 colon = system: HCT-116 colon
# HOP-92 NSCLC = system: HOP-92 NSCLC
# IGROV1 ovarian = system: IGROV1 ovarian
# SK-MEL-28 melanoma = system: SK-MEL-28 melanoma
# HCC-2998 colon = system: HCC-2998 colon
# ACHN renal = system: ACHN renal
# SW-620 colon = system: SW-620 colon
# EKVX NSCLC = system: EKVX NSCLC
# TK-10 renal = system: TK-10 renal
# SF-295 CNS = system: SF-295 CNS
# A549 NSCLC = system: A549 NSCLC
# HCT-15 colon = system: HCT-15 colon
# NCI-H460 lung = system: NCI-H460 lung
# U251 CNS = system: U251 CNS
# UO-31 renal = system: UO-31 renal
# SK-MEL-5 melanoma = system: SK-MEL-5 melanoma
# RXF 393 renal = system: RXF 393 renal
# KM12 colon = system: KM12 colon
# OVCAR-3 ovarian = system: OVCAR-3 ovarian
# COLO 205 colon = system: COLO 205 colon
# T-47D breast = system: T-47D breast
# MDA-N = system: MDA-N
# OVCAR-5 ovarian = system: OVCAR-5 ovarian
# MALME-3M melanoma = system: MALME-3M melanoma
# NCI-H522 lung = system: NCI-H522 lung
# MOLT-4 leukemia = system: MOLT-4 leukemia
# SK-MEL-2 melanoma = system: SK-MEL-2 melanoma
# SF-268 CNS = system: SF-268 CNS
# BT-549 breast = system: BT-549 breast
# M14 melanoma = system: M14 melanoma
# SK-OV-3 ovarian = system: SK-OV-3 ovarian
# K-562 leukemia = system: K-562 leukemia
# MCF7 breast = system: MCF7 breast
# OVCAR-8 ovarian = system: OVCAR-8 ovarian
# HL-60(TB) leukemia = system: HL-60(TB) leukemia
# CCRF-CEM leukemia = system: CCRF-CEM leukemia
# SR leukemia = system: SR leukemia
# OVCAR-4 ovarian = system: OVCAR-4 ovarian
# MDA-MB-231 breast = system: MDA-MB-231 breast
# DU-145 prostate = system: DU-145 prostate
# 786-0 renal = system: 786-0 renal
# HOP-62 NSCLC = system: HOP-62 NSCLC
# HS 578T breast = system: HS 578T breast
# UACC-257 melanoma = system: UACC-257 melanoma
# PC-3 prostate = system: PC-3 prostate
# SNB-75 CNS = system: SNB-75 CNS
# UACC-62 melanoma = system: UACC-62 melanoma
# CAKI-1 renal = system: CAKI-1 renal
# NCI-H226 lung = system: NCI-H226 lung
# HT29 colon = system: HT29 colon
# NCI-H23 lung = system: NCI-H23 lung
# SN12C renal = system: SN12C renal
# RPMI-8226 leukemia = system: RPMI-8226 leukemia
# SNB-19 CNS = system: SNB-19 CNS
# MDA-MB-435 = system: MDA-MB-435
# LOX IMVI melanoma = system: LOX IMVI melanoma
compound,measurement,setting,value
O=C(O)c1c[nH]c2cc(OCc3ccccc3)ccc2c1=O,TGI,A498 renal,31.4 µM
same,TGI,SF-539 CNS,36.8 µM
same,TGI,NCI/ADR-RES ovarian,37.8 µM
same,TGI,HCT-116 colon,31 µM
same,TGI,HOP-92 NSCLC,35.1 µM
same,TGI,IGROV1 ovarian,32.4 µM
same,TGI,SK-MEL-28 melanoma,30.1 µM
same,TGI,HCC-2998 colon,32.2 µM
same,TGI,ACHN renal,32.7 µM
same,TGI,SW-620 colon,40.5 µM
same,TGI,EKVX NSCLC,38.7 µM
same,TGI,TK-10 renal,39.6 µM
same,TGI,SF-295 CNS,34.4 µM
same,TGI,A549 NSCLC,35.5 µM
same,TGI,HCT-15 colon,36.1 µM
same,TGI,NCI-H460 lung,34.5 µM
same,TGI,U251 CNS,36.1 µM
same,TGI,UO-31 renal,31.1 µM
same,TGI,SK-MEL-5 melanoma,32 µM
same,TGI,RXF 393 renal,38.2 µM
same,TGI,KM12 colon,33.8 µM
same,TGI,OVCAR-3 ovarian,35.3 µM
same,TGI,COLO 205 colon,34.8 µM
same,TGI,T-47D breast,38.8 µM
same,TGI,MDA-N,30.9 µM
same,TGI,OVCAR-5 ovarian,42.1 µM
same,TGI,MALME-3M melanoma,31.7 µM
same,TGI,NCI-H522 lung,30.8 µM
same,TGI,MOLT-4 leukemia,84 µM
same,TGI,SK-MEL-2 melanoma,33.3 µM
same,TGI,SF-268 CNS,29.4 µM
same,TGI,BT-549 breast,32.5 µM
same,TGI,M14 melanoma,31.8 µM
same,TGI,SK-OV-3 ovarian,36.6 µM
same,TGI,K-562 leukemia,54.3 µM
same,TGI,MCF7 breast,39.8 µM
same,TGI,OVCAR-8 ovarian,35.3 µM
same,TGI,HL-60(TB) leukemia,2.32 µM
same,TGI,CCRF-CEM leukemia,53.2 µM
same,TGI,SR leukemia,53.8 µM
same,TGI,OVCAR-4 ovarian,31.1 µM
same,TGI,MDA-MB-231 breast,48.6 µM
same,TGI,DU-145 prostate,33.3 µM
same,TGI,786-0 renal,32.5 µM
same,TGI,HOP-62 NSCLC,35.9 µM
same,TGI,HS 578T breast,45.2 µM
same,TGI,UACC-257 melanoma,50.7 µM
same,TGI,PC-3 prostate,31.2 µM
same,TGI,SNB-75 CNS,31.4 µM
same,TGI,UACC-62 melanoma,30.5 µM
same,TGI,CAKI-1 renal,40.1 µM
same,TGI,NCI-H226 lung,33.8 µM
same,TGI,HT29 colon,33.3 µM
same,TGI,NCI-H23 lung,33.3 µM
same,TGI,SN12C renal,32.2 µM
same,TGI,RPMI-8226 leukemia,64.9 µM
same,TGI,SNB-19 CNS,32.4 µM
same,TGI,MDA-MB-435,30 µM
COc1ccc(N2CCOCC2)cc1,TGI,A498 renal,> 100 µM
same,TGI,SF-539 CNS,> 100 µM
same,TGI,NCI/ADR-RES ovarian,> 100 µM
same,TGI,HCT-116 colon,> 100 µM
same,TGI,HOP-92 NSCLC,> 100 µM
same,TGI,IGROV1 ovarian,> 100 µM
same,TGI,SK-MEL-28 melanoma,> 100 µM
same,TGI,HCC-2998 colon,> 100 µM
same,TGI,ACHN renal,> 100 µM
same,TGI,SW-620 colon,> 100 µM
same,TGI,EKVX NSCLC,> 100 µM
same,TGI,TK-10 renal,> 100 µM
same,TGI,SF-295 CNS,> 100 µM
same,TGI,A549 NSCLC,> 100 µM
same,TGI,HCT-15 colon,> 100 µM
same,TGI,NCI-H460 lung,> 100 µM
same,TGI,U251 CNS,> 100 µM
same,TGI,UO-31 renal,> 100 µM
same,TGI,SK-MEL-5 melanoma,> 100 µM
same,TGI,RXF 393 renal,> 100 µM
same,TGI,KM12 colon,> 100 µM
same,TGI,OVCAR-3 ovarian,> 100 µM
same,TGI,COLO 205 colon,> 100 µM
same,TGI,T-47D breast,> 100 µM
same,TGI,MDA-N,> 100 µM
same,TGI,OVCAR-5 ovarian,> 100 µM
same,TGI,MALME-3M melanoma,> 100 µM
same,TGI,NCI-H522 lung,> 100 µM
same,TGI,MOLT-4 leukemia,> 100 µM
same,TGI,SK-MEL-2 melanoma,> 100 µM
same,TGI,SF-268 CNS,> 100 µM
same,TGI,BT-549 breast,> 100 µM
same,TGI,M14 melanoma,> 100 µM
same,TGI,SK-OV-3 ovarian,> 100 µM
same,TGI,K-562 leukemia,> 100 µM
same,TGI,MCF7 breast,> 100 µM
same,TGI,OVCAR-8 ovarian,> 100 µM
same,TGI,HL-60(TB) leukemia,> 100 µM
same,TGI,CCRF-CEM leukemia,> 100 µM
same,TGI,SR leukemia,> 100 µM
same,TGI,OVCAR-4 ovarian,> 100 µM
same,TGI,MDA-MB-231 breast,> 100 µM
same,TGI,DU-145 prostate,> 100 µM
same,TGI,786-0 renal,> 100 µM
same,TGI,HOP-62 NSCLC,> 100 µM
same,TGI,HS 578T breast,> 100 µM
same,TGI,UACC-257 melanoma,> 100 µM
same,TGI,PC-3 prostate,> 100 µM
same,TGI,SNB-75 CNS,> 100 µM
same,TGI,UACC-62 melanoma,> 100 µM
same,TGI,CAKI-1 renal,> 100 µM
same,TGI,NCI-H226 lung,> 100 µM
same,TGI,HT29 colon,> 100 µM
same,TGI,NCI-H23 lung,> 100 µM
same,TGI,SN12C renal,> 100 µM
same,TGI,RPMI-8226 leukemia,> 100 µM
same,TGI,SNB-19 CNS,> 100 µM
same,TGI,MDA-MB-435,> 100 µM
COc1ccc2[nH]c(Cl)c(/C=C3/C(=O)N(c4ccccc4)c4ccccc43)c2c1,TGI,A498 renal,> 100 µM
same,TGI,SF-539 CNS,6.63 µM
same,TGI,NCI/ADR-RES ovarian,6.45 µM
same,TGI,HCT-116 colon,18.6 µM
same,TGI,HOP-92 NSCLC,> 100 µM
same,TGI,IGROV1 ovarian,> 100 µM
same,TGI,SK-MEL-28 melanoma,52 µM
same,TGI,HCC-2998 colon,17.6 µM
same,TGI,ACHN renal,> 100 µM
same,TGI,SW-620 colon,24.6 µM
same,TGI,EKVX NSCLC,69.5 µM
same,TGI,TK-10 renal,36.5 µM
same,TGI,SF-295 CNS,7.33 µM
same,TGI,A549 NSCLC,> 100 µM
same,TGI,HCT-15 colon,13 µM
same,TGI,NCI-H460 lung,16.3 µM
same,TGI,U251 CNS,30.7 µM
same,TGI,UO-31 renal,93.1 µM
same,TGI,SK-MEL-5 melanoma,5.97 µM
same,TGI,RXF 393 renal,47.3 µM
same,TGI,KM12 colon,> 100 µM
same,TGI,OVCAR-3 ovarian,7.71 µM
same,TGI,COLO 205 colon,5.89 µM
same,TGI,T-47D breast,21.4 µM
same,TGI,MDA-N,3.53 µM
same,TGI,OVCAR-5 ovarian,94.8 µM
same,TGI,MALME-3M melanoma,36.2 µM
same,TGI,NCI-H522 lung,17.9 µM
same,TGI,MOLT-4 leukemia,> 100 µM
same,TGI,SK-MEL-2 melanoma,10.9 µM
same,TGI,SF-268 CNS,23.3 µM
same,TGI,BT-549 breast,11.3 µM
same,TGI,M14 melanoma,12.9 µM
same,TGI,SK-OV-3 ovarian,10.8 µM
same,TGI,K-562 leukemia,26.4 µM
same,TGI,MCF7 breast,> 100 µM
same,TGI,OVCAR-8 ovarian,28.8 µM
same,TGI,HL-60(TB) leukemia,9.02 µM
same,TGI,CCRF-CEM leukemia,63.4 µM
same,TGI,SR leukemia,11.1 µM
same,TGI,MDA-MB-231 breast,65.3 µM
same,TGI,DU-145 prostate,76.4 µM
same,TGI,786-0 renal,20.9 µM
same,TGI,HOP-62 NSCLC,23.4 µM
same,TGI,HS 578T breast,39.6 µM
same,TGI,UACC-257 melanoma,24.3 µM
same,TGI,PC-3 prostate,> 100 µM
same,TGI,SNB-75 CNS,49.1 µM
same,TGI,UACC-62 melanoma,43.4 µM
same,TGI,LOX IMVI melanoma,14.3 µM
same,TGI,CAKI-1 renal,> 100 µM
same,TGI,HT29 colon,45.8 µM
same,TGI,NCI-H23 lung,19.5 µM
same,TGI,SN12C renal,18.9 µM
same,TGI,RPMI-8226 leukemia,20.4 µM
same,TGI,SNB-19 CNS,88.5 µM
same,TGI,MDA-MB-435,4.33 µM
